Twelve molecules from ChEMBL document CHEMBL1201862, “PubChem BioAssay data set” (2004) can be followed below.

What all share (assay): NCI-60 cell line screen, 48 h
The test system of assay [1] is SK-MEL-5.
The subject of assay [2] is TK-10.
For assay [3], the system named is SNB-19.
The subject of assay [4] is NCI-H522.
Assay [5] concerns NCI-H23.
The test system of assay [6] is ACHN.
Assay [7] relates to HCC 2998.
In assay [8] the test system is SNB-75.
The subject of assay [9] is NCI/ADR-RES.
Assay [10] relates to UACC-62.
Assay [11] has as its system SR.
The test system of assay [12] is A549.
Assay [13] concerns CCRF-CEM.
Assay [14] relates to SF-539.
The subject of assay [15] is MDA-N.
Assay [16] has as its system OVCAR-8.
In assay [17] the test system is Hs-578T.
The subject of assay [18] is HOP-92.
The subject of assay [19] is A498.

Structures are written as SMILES.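 Where inhibition never reached the appropriate level, the endpoint shown equals the highest concentration tested. Otherwise, values were interpolated linearly from a five-concentration, 48-hour dose response in 96-well plates. GI50: concentration for 50% inhibition of growth.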 Calls of active or inactive are those of the source. Cut-off read from the data, not from the text of the source: active = GI50 up to about 1.1 µM and inactive = higher. Where a SMILES comes first, the peptide text is derived from it. The star is where a group is joined. Boc = CC(C)(C)OC(=O)*; tBu = CC(C)(C)*

Take `O=c1c(S(=O)(=O)Oc2ccccc2)coc2cc(F)ccc12`: the GI50 in [1] was > 100 µM (inactive); in assay [2], > 100 µM (inactive); in assay [3], > 100 µM (inactive); in assay [4], > 100 µM (inactive); in assay [5], 82.2 µM (inactive); in assay [6] it was > 100 µM (inactive). For the same molecule, the GI50 in [7] is > 100 µM (inactive); in assay [8], 30.9 µM (inactive); in [9], 32.4 µM (inactive); in assay [10] it was 60 µM (inactive); in [11], > 100 µM (inactive); in [12], > 100 µM (inactive). Also, the GI50 is 65.3 µM (inactive) in [13]; > 100 µM (inactive) in assay [14]; > 100 µM (inactive) in assay [15]; > 100 µM (inactive) in assay [16]; 26.2 µM (inactive) in [17].

`CCOC(=O)C(NC(=O)c1ccccc1)(Nc1ccc(S(=O)(=O)Nc2ncccn2)cc1)C(F)(F)F` (configuration not stated): the GI50 in assay [1], in assay [2], in [3], in assay [5], in assay [6] and in assay [7] was > 100 µM (inactive) throughout. The GI50 in assay [8], in assay [9], in assay [10], in assay [11], in assay [12] and in assay [13] was > 100 µM (inactive) each time. Further, the GI50 in [14], in assay [18], in assay [15], in assay [16] and in assay [17] was > 100 µM (inactive) throughout.

With `CCOC(=O)[C@H]1O[C@@H]1C(=O)NC(CC(C)C)C(=O)NCCC(C)C` (some centres not stated), the GI50 in assay [1], in assay [3], in assay [4], in assay [5], in [7] and in assay [8] was > 100 µM (inactive) in each case. The GI50 in assay [9], in assay [10], in assay [19], in [12], in assay [13] and in assay [14] was > 100 µM (inactive) throughout. Moreover, the GI50 in assay [18], in assay [15], in [16] and in [17] was > 100 µM (inactive) throughout.

Take `CC12CCCC3(CC(=O)C(C)(C)C3C(=O)C1)C2` (configuration not stated): the GI50 in assay [1], in assay [2], in [3], in [4], in assay [5] and in [6] was > 100 µM (inactive) throughout. Also, the GI50 in assay [8], in assay [9], in assay [10], in [11], in [12] and in assay [13] was > 100 µM (inactive) throughout. Further, the GI50 in assay [18], in [15], in assay [16] and in assay [17] was > 100 µM (inactive) in each case.

Take `Cc1ccc(C(=O)C#Cc2cn(C3CC(O)C(CO)O3)c(=O)[nH]c2=O)cc1` (configuration not stated): the GI50 was > 100 µM (inactive) in assay [1]; > 100 µM (inactive) in assay [2]; > 100 µM (inactive) in assay [3]; 11.5 µM (inactive) in assay [4]; > 100 µM (inactive) in assay [5]; > 100 µM (inactive) in [6]. Also, the GI50 in [7] is > 100 µM (inactive); in [8], > 100 µM (inactive); in [9], > 100 µM (inactive); in assay [10], > 100 µM (inactive); in assay [11], 35.2 µM (inactive); in assay [12], > 100 µM (inactive). The GI50 is > 100 µM (inactive) in assay [14]; 32.6 µM (inactive) in assay [18]; > 100 µM (inactive) in assay [15]; > 100 µM (inactive) in [16]; 95.1 µM (inactive) in assay [17].

Consider `CCC(=O)N1C(=O)C(CC)(CC)C(=O)N1C(=O)CC`, for which the GI50 in assay [1], in [2], in assay [3], in [4], in assay [5] and in assay [6] was > 100 µM (inactive) in each case. Besides, the GI50 in [7], in [8], in assay [9], in [10], in [11] and in assay [12] was > 100 µM (inactive) in each case. Also, the GI50 in assay [13], in assay [15], in assay [16] and in assay [17] was > 100 µM (inactive) in each case.

For the molecule `C/C=C1/CN2CCC34c5ccccc5N(C)C23C2CC1C4(C(=O)OC)C(O)O2` (configuration not stated), the GI50 in assay [1], in assay [2], in assay [3], in [4], in [5] and in [6] was > 100 µM (inactive) throughout. In addition, the GI50 in [7], in assay [8], in [9], in assay [10], in assay [19] and in assay [12] was > 100 µM (inactive) in each case. Moreover, the GI50 in assay [13], in assay [14], in [18], in assay [15], in assay [16] and in assay [17] was > 100 µM (inactive) in each case.

Turning to `c1ccc2c(c1)Nc1cccc3c1c-2nc1cc2ccccc2cc13`, the GI50 is 1.7 µM (inactive) in [1]; 1.87 µM (inactive) in assay [2]; 1.75 µM (inactive) in [3]; 1.98 µM (inactive) in assay [4]; 1.32 µM (inactive) in assay [5]; 1.53 µM (inactive) in assay [6]. The GI50 in [7] was 1.72 µM (inactive); in [8], 1.41 µM (inactive); in [9], 2.2 µM (inactive); in [10], 2.12 µM (inactive); in assay [19] it was 2.88 µM (inactive); in [12], 1.8 µM (inactive). The GI50 was 1.8 µM (inactive) in [14], 1.51 µM (inactive) in [18], 1.45 µM (inactive) in assay [15] and 2.24 µM (inactive) in assay [17].

Consider `COc1ccc2c(c1)/C(=C\c1c(C)nc3sc(C)cn13)C(=O)N2`, for which the GI50 in assay [1] was 0.206 µM (active); in assay [2], 3.18 µM (inactive); in assay [3], 3.33 µM (inactive); in assay [4], 0.175 µM (active); in assay [5], 2.31 µM (inactive); in assay [6], 3.83 µM (inactive). Besides, the GI50 in [7] was 0.337 µM (active); in assay [9], 1.36 µM (inactive); in [10], 0.274 µM (active); in assay [11] it was 0.409 µM (active); in [19], 0.531 µM (active); in [12], 1.36 µM (inactive). Besides, the GI50 is 0.455 µM (active) in assay [13]; 0.204 µM (active) in [14]; 0.124 µM (active) in assay [15]; 2.94 µM (inactive) in assay [16]; 1.22 µM (inactive) in [17].

For the molecule `COc1ccc2oc(OC)c(CC=C(C)C)c(=O)c2c1C`, the GI50 in assay [1], in assay [2], in assay [3], in assay [4], in assay [5] and in [6] was > 100 µM (inactive) throughout. The GI50 in assay [7], in assay [8], in assay [9], in [10], in assay [11] and in assay [19] was > 100 µM (inactive) each time. For the same molecule, the GI50 in [12], in assay [13], in assay [14], in assay [15], in assay [16] and in assay [17] was > 100 µM (inactive) each time.

For `CCNCCNc1c2ccccc2nc2ccccc12`, the GI50 in assay [1] was 1.66 µM (inactive); in [2], 2.91 µM (inactive); in assay [3], 1.01 µM (active); in assay [4], 1.04 µM (active); in [5], 1.26 µM (inactive); in assay [6] it was 0.366 µM (active). Further, the GI50 in [7] was 0.127 µM (active); in assay [8], 1.53 µM (inactive); in [9] it was 2.72 µM (inactive); in assay [10], 1.49 µM (inactive); in assay [11], 0.594 µM (active); in [12], 1.56 µM (inactive). For the same molecule, the GI50 was 1.29 µM (inactive) in assay [13]; 0.745 µM (active) in [14]; 1.28 µM (inactive) in [15]; 1.81 µM (inactive) in [16]; 1.98 µM (inactive) in assay [17].

As to `CC(OC(C)(C)C)C(NC(=O)C(N)CCCCNC(=O)OC(C)(C)C)C(=O)NC(Cc1ccccc1)C(=O)O` (configuration not stated) (H-Lys(Boc)-Thr(tBu)-Phe-OH; configuration not given here), the GI50 in assay [1], in assay [2], in [3], in assay [5], in assay [6] and in assay [7] was > 100 µM (inactive) throughout. The GI50 in assay [8], in [9], in assay [10], in [11], in assay [12] and in assay [13] was > 100 µM (inactive) each time. For the same molecule, the GI50 in assay [14], in assay [18], in assay [15], in assay [16] and in assay [17] was > 100 µM (inactive) in each case.
